{
  "source": "patent US20230131427A1",
  "about": "“FUNGICIDAL COMPOSITIONS” (SYNGENTA CROP PROTECTION AG, priority 2020, published 2023)",
  "key": {"Septoria tritici": {"tested_on": "Septoria tritici", "assay": "Example B3: mixtures, preventative activity against Septoria tritici (leaf blotch), liquid culture", "assay_type": "cell-based", "conditions": "component B alone; for inhibition at 0.1 ppm / inhibition at 0.3 ppm: Zymoseptoria tritici, read-out: Activity (%) B", "from_the_text": "(§1) This occurs whenever the action of an active ingredient combination is greater than the sum of the actions of the individual components. The action to be expected E for a given active ingredient combination obeys the so-called COLBY formula and can be calculated as follows (COLBY, S. R. “Calculating synergistic and antagonistic responses of herbicide combination”. Weeds, Vol. 15, pages 20-22; 1967):\n(§2) If the action actually observed (O) is greater than the expected action (E), then the action of the combination is super-additive, i.e. there is a synergistic effect. In mathematical terms, synergism corresponds to a positive value for the difference of (O-E). In the case of purely complementary addition of activities (expected activity), said difference (O-E) is zero. A negative value of said difference (O-E) signals a loss of activity compared to the expected activity.\n(§3) Conidia of the fungus from cryogenic storage were directly mixed into nutrient broth (PDB potato dextrose broth). A DMSO solution of the test compounds was placed into a microtiter plate (96-well format) and the nutrient broth containing the fungal spores was added to it.\n(§4) Fungicidal activity was evaluated on a 100-0 scale (100=no disease growth; 0=well completely covered by mycelium)."}, "[1]": {"tested_on": "Mycosphaerella arachidis syn. Cercospora arachidicola", "assay": "Example B4: mixtures, preventative activity against Mycosphaerella arachidis syn. Cercospora arachidicola (brown leaf spot of peanut), liquid culture", "assay_type": "cell-based", "conditions": "component B alone", "from_the_text": "as §1, §2, §3\nCercospora arachidicola (Brown leaf spot of peanut). Fungicidal activity was evaluated on a 100-0 scale (100=no disease growth; 0=well completely covered by mycelium)."}, "[2]": {"tested_on": "Glomerella lagenarium syn. Colletotrichum lagenarium", "assay": "Example B1: mixtures, preventative activity against Glomerella lagenarium syn. Colletotrichum lagenarium, liquid culture", "assay_type": "cell-based", "conditions": "component B alone; for inhibition at 0.1 ppm / inhibition at 0.3 ppm: Colletotrichum orbiculare, read-out: Activity (%) B", "from_the_text": "as §1, §2, §3, §4"}, "Phakopsora pachyrhizi": {"tested_on": "Phakopsora pachyrhizi", "assay": "Example B5: preventative activity against Phakopsora pachyrhizi (soybean rust), whole soybean plants sprayed, leaf disks inoculated", "assay_type": "in vivo", "conditions": "for Observed Activity (%) (% of untreated): active ingredient alone", "description": "Whole soybean plants are treated with the recited active ingredients 4 weeks after planting. 1 day after spraying leaf disks are cut from the first trifoliate leaf. Five repetitions at each rate are conducted. The leaf disks are inoculated with Phakopsora pachyrhizi (Asian soybean rust) one day after treatment.\nEvaluation of the leaf disks is conducted 11 to 14 days after inoculation and the activity is derived from the relation of the treated vs untreated, infested check (100=no disease, no damage to the leaf, 0=high infestation, leaf damaged heavily). The rates of the active ingredients used are given in the tables as g active ingredient (a.i.)/ha."}, "Septoria glycines": {"tested_on": "Septoria glycines", "assay": "Example B2: mixtures, preventative activity against Septoria glycines (brown spot), liquid culture", "assay_type": "cell-based", "conditions": "component B alone", "from_the_text": "as §1, §2\nas §3, with “fungus harvested” for “fungus”, “a fresh culture grown on artificial media,” for “cryogenic storage”\nas §4"}, "[3]": {"conditions": "Mycosphaerella arachidis, 0.1 ppm"}},
  "note": "Read-outs that look alike come from different tables or passages of the source.",
  "data": [
    {"molecule": "O=C1c2ccccc2C(=O)N1SC(Cl)(Cl)Cl", "note": "[folpet]", "values": [
      {"measurement": "inhibition at 0.1 ppm", "setting": "Septoria tritici; 0.1 ppm, 100-0 scale", "value": 0, "unit": "%"},
      {"measurement": "inhibition at 0.3 ppm", "setting": "Septoria tritici; 0.3 ppm, 100-0 scale", "value": 0, "unit": "%"},
      {"measurement": "inhibition at 0.1 ppm", "setting": "[1]; [3]", "value": 20, "unit": "%"}
    ]},
    {"molecule": "Cn1cc(C(=O)Nc2cccc3c2[C@@H]2CC[C@H]3C2=C(Cl)Cl)c(C(F)F)n1", "note": "(racemic) [benzovindiflupyr, reference compound]", "values": [
      {"measurement": "Activity (%) B", "setting": "[2]; 0.1 ppm", "value": 50, "unit": "%"},
      {"measurement": "Activity (%) B", "setting": "[2]; 0.3 ppm", "value": 100, "unit": "%"},
      {"measurement": "Observed Activity (%) (% of untreated)", "setting": "Phakopsora pachyrhizi; 2.25 g/ha", "value": 34, "unit": "%"},
      {"measurement": "Observed Activity (%) (% of untreated)", "setting": "Phakopsora pachyrhizi; 4.5 g/ha", "value": 80, "unit": "%"},
      {"measurement": "Observed Activity (%) (% of untreated)", "setting": "Phakopsora pachyrhizi; 9 g/ha", "value": 99, "unit": "%"},
      {"measurement": "Observed Activity (% of untreated) against Phakopsora pachyrhizi", "setting": "Phakopsora pachyrhizi; applied alone, 2.25 g/ha", "value": 34, "unit": "%"},
      {"measurement": "Observed Activity (% of untreated) against Phakopsora pachyrhizi", "setting": "Phakopsora pachyrhizi; applied alone, 4.5 g/ha", "value": 80, "unit": "%"},
      {"measurement": "Observed Activity (% of untreated) against Phakopsora pachyrhizi", "setting": "Phakopsora pachyrhizi; applied alone, 9 g/ha", "value": 99, "unit": "%"},
      {"measurement": "Activity (%) B", "setting": "Septoria tritici; 0.1 ppm, 100-0 scale", "value": 50, "unit": "%"},
      {"measurement": "Activity (%) B", "setting": "Septoria tritici; 0.3 ppm, 100-0 scale", "value": 70, "unit": "%"}
    ]},
    {"molecule": "COc1ccnc(C(=O)N[C@@H](C)C(=O)O[C@@H](C)C(c2ccc(F)cc2)c2ccc(F)cc2)c1OC(C)=O", "note": "[florylpicoxamid, reference compound]", "values": [
      {"measurement": "Activity (%) B", "setting": "Septoria glycines; 0.01 ppm", "value": 0, "unit": "%"},
      {"measurement": "Activity (%) B", "setting": "Septoria glycines; 0.01 ppm, 100-0 scale", "value": 0, "unit": "%"},
      {"measurement": "Activity (%) B", "setting": "Septoria glycines; 0.02 ppm", "value": 20, "unit": "%"},
      {"measurement": "Activity (%) B", "setting": "Septoria glycines; 0.02 ppm, 100-0 scale", "value": 20, "unit": "%"},
      {"measurement": "Activity (%) B", "setting": "Septoria tritici; 0.01 ppm, 100-0 scale", "value": 0, "unit": "%"},
      {"measurement": "Activity (%) B", "setting": "Septoria tritici; 0.01 ppm, 72 hrs", "value": 0, "unit": "%"},
      {"measurement": "Activity (%) B", "setting": "Septoria tritici; 0.02 ppm, 100-0 scale", "value": 20, "unit": "%"},
      {"measurement": "Activity (%) B", "setting": "Septoria tritici; 0.02 ppm, 72 hrs", "value": 20, "unit": "%"},
      {"measurement": "Activity (%) B", "setting": "[1]; 0.01 ppm", "value": 70, "unit": "%"},
      {"measurement": "Activity (%) B", "setting": "[1]; 0.02 ppm", "value": 90, "unit": "%"}
    ]},
    {"molecule": "CC(C)c1ccc(Cl)cc1CN(C(=O)c1c(C(F)F)nn(C)c1F)C1CC1", "note": "[isoflucypram]", "values": [
      {"measurement": "Activity (%) B", "setting": "[1]; 0.1 ppm", "value": 90, "unit": "%"},
      {"measurement": "Activity (%) B", "setting": "[1]; 0.3 ppm", "value": 100, "unit": "%"}
    ]},
    {"molecule": "Cc1ccc(C(=O)OCc2ccc(Oc3ccccc3)cc2)c(N)n1", "note": "[aminopyrifen]", "values": [
      {"measurement": "Activity (%) B", "setting": "[2]; 0.1 ppm", "value": 20, "unit": "%"},
      {"measurement": "Activity (%) B", "setting": "[2]; 0.3 ppm", "value": 50, "unit": "%"},
      {"measurement": "Activity (%) B", "setting": "Septoria glycines; 0.1 ppm", "value": 0, "unit": "%"},
      {"measurement": "Activity (%) B", "setting": "Septoria glycines; 0.1 ppm, 100-0 scale", "value": 0, "unit": "%"},
      {"measurement": "Activity (%) B", "setting": "Septoria glycines; 0.3 ppm, 100-0 scale", "value": 20, "unit": "%"},
      {"measurement": "Activity (%) B", "setting": "[1]; 0.1 ppm", "value": 90, "unit": "%"},
      {"measurement": "Activity (%) B", "setting": "[1]; 0.3 ppm", "value": 100, "unit": "%"}
    ]},
    {"molecule": "CON=C(C(=O)OC)c1ccccc1CON=C(C)c1cccc(C(F)(F)F)c1", "note": "[trifloxystrobin, reference compound]", "values": [
      {"measurement": "inhibition at 0.1 ppm", "setting": "[2]; 0.1 ppm", "value": 90, "unit": "%"},
      {"measurement": "inhibition at 0.3 ppm", "setting": "[2]; 0.3 ppm", "value": 90, "unit": "%"},
      {"measurement": "inhibition at 2.25 g/ha", "setting": "Phakopsora pachyrhizi; Phakopsora pachyrhizi, foliar, applied alone, 2.25 g/ha, read-out: Observed Activity (% of untreated) against Phakopsora pachyrhizi", "value": 0, "unit": "%"},
      {"measurement": "inhibition at 4.5 g/ha", "setting": "Phakopsora pachyrhizi; Phakopsora pachyrhizi, foliar, applied alone, 4.5 g/ha, read-out: Observed Activity (% of untreated) against Phakopsora pachyrhizi", "value": 3, "unit": "%"},
      {"measurement": "inhibition at 9 g/ha", "setting": "Phakopsora pachyrhizi; Phakopsora pachyrhizi, foliar, applied alone, 9 g/ha, read-out: Observed Activity (% of untreated) against Phakopsora pachyrhizi", "value": 0, "unit": "%"},
      {"measurement": "inhibition at 18 g/ha", "setting": "Phakopsora pachyrhizi; Phakopsora pachyrhizi, foliar, applied alone, 18 g/ha, read-out: Observed Activity (% of untreated) against Phakopsora pachyrhizi", "value": 19, "unit": "%"},
      {"measurement": "inhibition at 0.1 ppm", "setting": "Septoria glycines; Septoria glycines, 0.1 ppm, 100-0 scale, read-out: Activity (%) B", "value": 90, "unit": "%"},
      {"measurement": "inhibition at 0.3 ppm", "setting": "Septoria glycines; Septoria glycines, 0.3 ppm, 100-0 scale", "value": 100, "unit": "%"}
    ]},
    {"molecule": "N#Cc1c(Cl)c(Cl)c(Cl)c(C#N)c1Cl", "note": "[chlorothalonil, reference compound]", "values": [
      {"measurement": "inhibition at 0.1 ppm", "setting": "[2]; 0.1 ppm", "value": 0, "unit": "%"},
      {"measurement": "inhibition at 0.3 ppm", "setting": "[2]; 0.3 ppm", "value": 20, "unit": "%"},
      {"measurement": "inhibition at 0.1 ppm", "setting": "Septoria tritici; 72 h, 0.1 ppm, 72 hrs, 100=no disease growth", "value": 20, "unit": "%"},
      {"measurement": "inhibition at 0.3 ppm", "setting": "Septoria tritici; 72 h, 0.3 ppm, 72 hrs", "value": 70, "unit": "%"},
      {"measurement": "inhibition at 0.3 ppm", "setting": "Septoria tritici; 0.3 ppm, 100-0 scale", "value": 70, "unit": "%"},
      {"measurement": "inhibition at 0.1 ppm", "setting": "[1]; [3]", "value": 0, "unit": "%"},
      {"measurement": "inhibition at 0.3 ppm", "setting": "[1]; Mycosphaerella arachidis, 0.3 ppm", "value": 90, "unit": "%"}
    ]}
  ]
}
